# Laboratory results reported in patent US12023335B2, “Method for treating pancreatic cancer” (PTC THERAPEUTICS, INC., priority 2018, dated 2024).
# “Also recorded” adds a separate entry of the source.
# Columns and labels:
# [1] = Plasma pharmacokinetic time course in mice after a single oral dose; assay type: in vivo; conditions: single oral dose 10 mg/kg (FIG. 4a)
# Protocol: Blood plasma and tissue samples to be used for analysis were immediately frozen on dry ice and stored at −80° C. until analysis. Concentrations of Compound 1 in samples were quantified using high-performance liquid chromatography with tandem mass spectrometry (LC-MS/MS). Compound 1 and its internal standard (deuterated Compound 1) were recovered by protein precipitation extraction from samples.
# For the plasma pharmacokinetic time course study, a standard curve was made to cover concentrations between 0.001 ug/mL and 3.0 μg/mL. The lower limit of quantification (LLOQ) for Compound 1 (either version) in plasma was 0.001 μg/mL. (FIG. 4a)
# [2] = biological target: T1, tubulin from porcine brain (Sus scrofa, UniProt P02550+P02554); assay: Cell-free tubulin polymerization assay; assay type: biochemical; conditions: 0.12, 0.37, 1.11, 3.33 and 10 μM (FIGS. 11e, 11f)
# T1 construct: which uses >99% pure tubulin from porcine brain; purchased Cytoskeleton #BK011P; host or cells: porcine brain (tissue-purified)
# Protocol: Assays were carried out according to manufacturer's recommendations using the fluorescence-based tubulin polymerization assay kit from Cytoskeleton (#BK011P) which uses >99% pure tubulin from porcine brain. All drugs used were dissolved in DMSO and then diluted in ultrapure water to 10× final concentration. Final percentage of DMSO was kept constant for all samples. Tubulin was prepared by resuspension at 2 mg/mL in 80 mM PIPES pH 6.9, 2.0 mM MgCl2, 0.5 mM EGTA, 1.0 mM GTP, 15% glycerol, and 10 μM fluorescent reporter. All drug samples (10×) were added to a pre-warmed half-area 96-well plate (Corning Costar, 3686) in duplicate, and then warmed to 37° C. for 1 min. Tubulin (50 μL/well) was then added to all wells, and the plate was placed in a plate reader pre-warmed to 37° C. The plate was mixed by medium, orbital shaking for 5 seconds, and fluorescence measured every 60 seconds for 90 minutes (Ex: 340-360+/−20 nm, Em: 410-460 nm+/−20 nm) in a BioTek Synergy 2 plate reader. Polymerization rates (fluorescence units/minute) were determined by measuring the maximal slope (by linear regression) of the linear portion of the growth phase of the polymerization curve. (FIG. 11e and FIG. 11f)
# T1 sequence (P02554 whole entry): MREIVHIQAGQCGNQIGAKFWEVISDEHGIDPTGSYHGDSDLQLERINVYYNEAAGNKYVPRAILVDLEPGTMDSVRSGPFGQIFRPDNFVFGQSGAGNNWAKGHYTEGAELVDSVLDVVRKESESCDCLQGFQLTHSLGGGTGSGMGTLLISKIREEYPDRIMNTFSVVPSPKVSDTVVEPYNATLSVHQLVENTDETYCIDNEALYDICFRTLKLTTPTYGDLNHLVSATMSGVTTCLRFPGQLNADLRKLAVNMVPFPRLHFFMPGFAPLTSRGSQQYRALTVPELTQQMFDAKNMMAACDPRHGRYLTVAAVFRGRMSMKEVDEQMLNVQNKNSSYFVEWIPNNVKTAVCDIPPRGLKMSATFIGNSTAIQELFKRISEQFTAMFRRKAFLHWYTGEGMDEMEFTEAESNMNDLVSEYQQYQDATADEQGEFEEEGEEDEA
# T1 sequence (P02550 whole entry): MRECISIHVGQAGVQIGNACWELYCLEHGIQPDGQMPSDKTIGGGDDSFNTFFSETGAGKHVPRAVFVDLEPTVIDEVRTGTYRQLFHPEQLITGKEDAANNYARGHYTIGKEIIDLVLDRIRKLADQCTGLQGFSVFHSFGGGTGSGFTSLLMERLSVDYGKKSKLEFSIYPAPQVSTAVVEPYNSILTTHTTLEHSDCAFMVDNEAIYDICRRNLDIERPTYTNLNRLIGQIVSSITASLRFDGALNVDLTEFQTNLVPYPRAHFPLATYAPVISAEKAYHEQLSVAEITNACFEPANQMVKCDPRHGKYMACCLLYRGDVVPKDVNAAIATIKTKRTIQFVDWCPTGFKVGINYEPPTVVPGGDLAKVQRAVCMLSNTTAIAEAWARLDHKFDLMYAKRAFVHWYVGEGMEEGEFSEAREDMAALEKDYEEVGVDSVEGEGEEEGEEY
smiles,measurement,setting,value
"Cc1nc2ccc(F)cc2n1-c1nc(N)c(F)c(Nc2ccc(C(F)(F)F)cc2)n1 [Compound 1, 5-fluoro-2-(6-fluoro-2-methyl-1H-benzo[d]imidazol-1-yl)-N4-[4-(trifluoromethyl)phenyl]pyrimidine-4,6-diamine]",CNS penetration / brain distribution,[1],penetrates the CNS and distributes into brain tissues
same,plasma / circulating half-life,[1]; 10 mg/kg,long circulating half-life; also recorded: long plasma half-life
same,tubulin polymerization (fluorescence units/minute),[2],function as a microtubule polymerization inhibitor; also recorded: dose-dependent decrease in tubulin polymerization; also recorded: directly inhibits microtubule formation
